According to PubChem BioAssay AID1902 (Broad Institute, 2009):
Active and inactive are the calls of the source.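 The calls were made as follows: active = EC50 no more than a set limit of log units above the highest dose; inactive = the rest.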

Target: S. pyogenes SKKanGAS, kanamycin survival, BacTiterGlo, 6 h
Test: S. pyogenes SKKanGAS kanamycin growth inhibitors – SKKanGAS strain, luminescence, dose confirmation, streptokinase promoter inhibitor project, dose response (AID 1902);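 also: lower survival reflects blocked streptokinase promoter driving kanamycin resistance gene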

Structure (SMILES)	EC50
Cc1cccc(NC(=O)c2ccc(S(=O)(=O)N(C)CC3CCCO3)cc2)c1C (stereo unspecified)	> 15000 nM (inactive)
CC(C)n1cnc2c(NCc3ccccc3)nc(NCc3ccccc3)nc21	3060 nM
Fc1cccc2sc(Nc3nc4cc5c(cc4s3)OCO5)nc12	> 15000 nM (inactive)
N#CC1=C(N)SC(N)=C(C#N)C1c1c(Cl)cccc1Cl	8780 nM
COc1ccccc1N1CC(C(=O)Nc2nnc(SCC(=O)NCC3CCCO3)s2)CC1=O (stereo unspecified)	> 15000 nM (inactive)
COc1ccc(/C=C/C(=O)NC(=S)NNC(=O)c2cc(OC)c(OC)c(OC)c2)cc1	1080 nM
O=C(NC(NC(=S)Nc1cccc(Cl)c1)C(Cl)(Cl)Cl)OCc1ccccc1 (stereo unspecified)	1780 nM
Cc1c(C(=O)N2CCC(Cc3ccccc3)CC2)sc2ncnc(N3CCC(C)CC3)c12	6310 nM
CCc1sc(N(C(=O)Cc2ccccc2)c2cccc(F)c2)nc1-c1ccc(C)cc1	1770 nM
CC(C)=CCC12Oc3cc(O)ccc3C1(O)Oc1cc3c(c(O)c1C2=O)C=CC(C)(C)O3 (stereo unspecified)	2400 nM
O=C(CSc1nnc(NC(=O)c2ccccc2[N+](=O)[O-])s1)NC1CCCC1	> 15000 nM (inactive)
CCC1(C)Cc2c(sc3nc(SC)[nH]c(=S)c23)CO1 (stereo unspecified)	1870 nM
O=C(c1ccc(O)cc1)c1ccc(C(=O)c2ccc(O)cc2)cc1	5070 nM
CCCCN(CCCC)c1nc(-c2ccncc2)nc2ccccc12	4240 nM
C/C(=N\Nc1ccc(Cl)c(Cl)c1)c1ccc(-n2ccnc2)cc1	1860 nM
Cc1[nH]n2c(=O)cc(-c3ccc([N+](=O)[O-])cc3)nc2c1-c1ccccc1	319 nM
O=C(Nc1cccc(Cl)c1)Nc1cc(S(=O)(=O)N2CCCCC2)ccc1Cl	7750 nM
Cc1cc(C)c(OCC(=O)N2CCN(c3ncc(C(F)(F)F)cc3Cl)CC2)c(C)c1	6880 nM
COc1ccc2nc(Nc3nc4cc5c(cc4s3)OCO5)sc2c1	1020 nM
CN1CCN(C2=Cc3cc(Cl)ccc3Sc3cc(F)ccc32)CC1	5160 nM
CC(C)Nc1nc(NC(C)C)nc(N(C)N)n1	3070 nM
N#C/C(=C(/O)c1ccc([N+](=O)[O-])o1)c1nc2ccccc2[nH]1	2050 nM

Structure (SMILES)	EC50
COc1ccc(-c2nc(NC(C)=O)sc2-c2ccc(OC)cc2)cc1	4050 nM
Cc1ccc2nc(Nc3nc(-c4ccccc4)cc(=O)[nH]3)nc(C)c2c1	2640 nM
CC1Cc2ccccc2N1C(=S)NC(=O)c1ccc(Cl)cc1Cl (stereo unspecified)	4260 nM
Cc1cc(C)c2nc(-c3ccncc3)cc(C(=O)N3CCN(Cc4ccccc4Cl)CC3)c2c1	4720 nM
CO[C@@]1(NC(=O)Cc2cccs2)C(=O)N2C(C(=O)O)=C(COC(N)=O)CS[C@@H]21	3330 nM
O=C(CN(c1ccc(Cl)c(C(F)(F)F)c1)S(=O)(=O)c1ccccc1)N/N=C/c1cccc2c1OCCO2	13400 nM
CC1CC(=O)c2c(cc3c(-c4c(O)cc(O)c5c(O)c6c(cc45)OC(C)CC6=O)c(O)cc(O)c3c2O)O1 (stereo unspecified)	501 nM
Clc1ccc(-c2csc(Nc3ccccc3)[n+]2Cc2ccco2)c(Cl)c1	3350 nM
CCOC(=O)c1csc(Nc2nc3ccc(F)cc3s2)n1	3210 nM
O=C(NC(=S)NNC(=O)c1ccc(Cl)cc1Cl)c1cccnc1	3070 nM
Cc1[nH]c(N=Nc2ccccc2)nc1N=Nc1ccccc1	2800 nM
CC(/C=C1\SC(=S)N(CCCC(=O)Nc2ccc(C(=O)O)cc2)C1=O)=C\c1ccccc1	190 nM
COc1ccc(-c2csc(NC(=O)c3ccc(C(C)(C)C)cc3)c2C(=O)O)cc1	1210 nM
Cc1nc(N)sc1-c1csc(N(C)c2ccc(O)cc2)n1	3570 nM
Cc1nnc(SC(C(=O)Nc2cc(Cl)cc(Cl)c2)c2ccccc2)[nH]c1=O (stereo unspecified)	10600 nM
Cc1ccccc1-n1nc(C(=O)c2cccs2)cc(-c2nc3ccccc3[nH]2)c1=N	1590 nM
COc1ccc2c(c1)C(=NNc1ccc(C(=O)O)cc1)c1cc(OC)ccc1-2	4680 nM
COc1ccc(NS(=O)(=O)c2ccc3nc(COc4cccc5ccccc45)[nH]c3c2)cc1	5970 nM
O=[N+]([O-])c1cc(S(=O)(=O)C(F)(F)F)ccc1Sc1nc2ccccc2[nH]1	4100 nM
CC1CCN(Cc2c(C(=O)N/N=C/c3cc(Cl)ccc3O)nnn2-c2nonc2N)CC1	2670 nM
CCC(C)Sc1cc(C(F)(F)F)c(C(=O)Nc2ccc(Cl)cc2)cn1 (stereo unspecified)	7310 nM
CCOC(=O)c1c(NC(=S)NCCc2ccccc2)sc2c1CC(C(C)C)OC2 (stereo unspecified)	602 nM

Structure (SMILES)	EC50
Cc1noc(C)c1C(=O)Nc1ccc2ccccc2c1	> 15000 nM (inactive)
COc1ccc(-c2nn(-c3ccccc3)cc2/C=C/C(=O)N2CCN(c3ccccn3)CC2)cc1	4690 nM
CCOc1ccc(NC(=S)N=Nc2c(O)[nH]c3ccccc23)cc1	525 nM
Cn1cccc1CC(=O)NNC(=S)NC(=O)c1ccccc1Br	1640 nM
CC(C)=CCc1c(-c2ccc(O)cc2O)oc2cc3c(c(O)c2c1=O)C=CC(C)(C)O3	1580 nM
CCN1C(=O)C(CC(=O)Nc2ccc(Br)cc2)N(CCCc2ccccc2)C1=S (stereo unspecified)	2900 nM
COCC1CCN(C(=O)CCc2nnc(C3(c4ccc(Cl)cc4)CCC3)o2)C1 (stereo unspecified)	> 15000 nM (inactive)
Oc1[nH]c2ccc(Br)cc2c1N=NC(=S)N1CCOCC1	108 nM
Cc1onc(-c2ccccc2)c1C(=O)NC(=S)NNC(=O)c1ccc(O)cc1	568 nM
CC(C)c1ccc2[nH]c3c(c2c1)CCC/C3=N\NC(=O)c1ccncc1	2430 nM
Oc1ccc(COCc2ccccc2)c2cccnc12	1850 nM
CCN1CCN(Cc2ccc(NC(=O)c3cc(NC(=O)c4cc(-c5ccc(OC)cc5)n[nH]4)cc(OC)c3)cc2C(F)(F)F)CC1	4260 nM
CCCCCCCCCCCCC(NC(C)=O)(C(=O)OCC)C(=O)OCC	6050 nM
C=CCn1c(COc2ccccc2)nnc1SC(C)C(=O)N/N=C/c1cc(Cl)ccc1O (stereo unspecified)	1700 nM
CC12CCC(C(=O)N(CSC(=S)N/N=C\c3ccccc3O)C1=O)C2(C)C (stereo unspecified)	2550 nM
O=C(COc1cccc(Cl)c1)Nc1ccccc1N1CCCCC1	5280 nM
O=C(NCc1ccc(F)cc1)C(=O)Nc1nc(C23CC4CC(CC(C4)C2)C3)cs1	637 nM
CC(C)N1CCc2c(sc(NC(=O)CCS(=O)(=O)c3ccccc3)c2C#N)C1	> 15000 nM (inactive)
Cc1cc(Br)cc(/C=N/NC(=O)c2ccc3c(c2)OCO3)c1O	1900 nM
Cc1cccc(CSc2ncnc3c2cnn3Cc2ccccc2)c1	4580 nM
CN(/N=C/c1cc(Br)cc(Br)c1O)c1cccc(C(F)(F)F)n1	544 nM
Oc1c(CN2CCCCC2)cc(Br)c2cccnc12	1120 nM

Structure (SMILES)	EC50
O=C(CSC(=S)N1CCOCC1)c1cc(Br)cc(Br)c1O	> 15000 nM (inactive)
Cc1sc2ncnc(N3CCC(C(=O)Nc4ccc(Cl)cc4Cl)CC3)c2c1C	11200 nM
CCCCN(C)S(=O)(=O)c1ccc(C(=O)Nc2nnc(-c3cccs3)o2)cc1	941 nM
CCCC1CC(C(=O)NC(C(C)Cl)C2OC(SC)C(O)C(O)C2O)N(C)C1 (stereo unspecified)	< 60 nM
CC/C(=C\C1CCCCC1)C(NP(=O)(c1ccccc1)c1ccccc1)c1ccccc1 (stereo unspecified)	1140 nM
Cc1cccc(NS(=O)(=O)c2ccc(C3CCCCC3)cc2)c1	4820 nM
CSCc1nnc(NC(=O)c2ccc(S(=O)(=O)N(CC(C)C)CC(C)C)cc2)o1	724 nM
FC(F)(F)c1cccc(NC(=S)N2CCCC2)c1	> 15000 nM (inactive)
COc1ccc(C(=O)OCC(=O)Nc2nnc(-c3ccccc3)o2)cc1	6540 nM
Cn1c(N)c(C(=O)COC(=O)/C=C/c2ccc(OC(F)F)cc2)c(=O)n(C)c1=O	1470 nM
O=C(Nc1cccc(Cl)c1N1CCCC1)c1cc2ccccc2o1	4810 nM
COc1ccc(/C=C/c2ccc3c(Br)ccc(O)c3n2)cc1	785 nM
CCN(CC)S(=O)(=O)c1cccc(C(=O)Nc2nc3cc4c(cc3s2)OCCO4)c1	976 nM
CCOc1ccc(NC(=S)NNC(=S)Nc2cccc(C(F)(F)F)c2)cc1	> 15000 nM (inactive)
FC(F)(F)c1ccccc1/C=N/n1c(C2CCCCC2)n[nH]c1=S	4760 nM
CC1CC(C)CN(S(=O)(=O)c2ccc(C(=O)Nc3nnc(C4CC4)o3)cc2)C1 (stereo unspecified)	1030 nM
O=C(CC1CCCCC1)c1c(O)c2ccccc2oc1=O	3540 nM
Nc1ccc(-c2cn3cccnc3n2)cc1	> 15000 nM (inactive)
Cc1cc(C(=O)N/N=C/c2cc(Cl)cc([N+](=O)[O-])c2O)c2ccccc2n1	2610 nM
COc1ccc(C(=O)NC(=S)NNC(=O)c2ccc(C)cc2)cc1	137 nM
CCOc1cc(/C=N/Nc2cccc(C(=O)O)c2)ccc1OC(=O)c1ccccc1	5180 nM
COc1ccc(-c2cc(C(=O)NNC(=S)NC(=O)c3c(-c4ccccc4)noc3C)[nH]n2)cc1	200 nM

Structure (SMILES)	EC50
O=C(NCc1ccccn1)C(=O)Nc1nc(C23CC4CC(CC(C4)C2)C3)cs1	1650 nM
Cc1ccc(-n2cc3c(-c4cccc(Br)c4)nnc(C)c3n2)cc1	7090 nM
Cc1cccnc1Nc1nc(-c2ccccn2)cs1	705 nM
Cc1ncc(CO)c(/C=N/NC(=O)c2cc(Br)ccc2O)c1O	1520 nM
CC(C)C[C@H](NC(=O)c1[nH]cnc1C(=O)N[C@@H](C)c1ccccc1)C(=O)OCc1ccccc1	1160 nM
COCC1CCCCN1C(=O)c1ccc2oc(CCCc3ccccc3)nc2c1 (stereo unspecified)	> 15000 nM (inactive)
O=C(NNC(=S)NC(=O)c1ccc(Br)cc1)c1cccc([N+](=O)[O-])c1	892 nM
COCCn1c(N)c(C(=O)NS(=O)(=O)c2ccc(C)cc2)c(=O)[nH]c1=O	> 15000 nM (inactive)
Nc1c(S(=O)(=O)c2cccs2)c2nc3ccccc3nc2n1/N=C/c1cccc(O)c1	4520 nM
CC(C)c1ccc2c(c1)c(SC(C)(C)C)c(CC(C)(C)C(=O)O)n2Cc1ccc(Cl)cc1	875 nM
CCCC(=O)NC(c1ccc(Cl)cc1)c1ccc2cccnc2c1O (stereo unspecified)	7200 nM
COc1ccc2cc(C(=O)/C=C/c3cc(OC)c(O)c(OC)c3)ccc2c1	6680 nM
c1ccc(-c2nnc(-c3c[nH]c4ccccc34)nc2-c2ccccc2)cc1	7170 nM
O=[N+]([O-])c1c(NCCCO)cc(Sc2nc3ccccc3s2)c2nonc12	2000 nM
CC(C)=CCC/C(C)=C/Cc1c(O)ccc(C(=O)/C=C/c2ccc(O)cc2)c1O	1020 nM
CC12CCC(C/C1=N\N=C1\NC(=O)/C(=C\c3cccc(Br)c3)S1)C2(C)C (stereo unspecified)	638 nM
O=C(COc1ccc(-c2ccccc2)cc1)N/N=C/c1cc(O)ccc1Br	2270 nM
CCN1C(=O)/C(=C\c2ccc(-c3ccc([N+](=O)[O-])cc3OC)o2)SC1=Nc1cccc(C(=O)O)c1	3570 nM
